Several values for one entry are separate records, joined by “and”; a condition that tells them apart may be missing. Identical values can stand only once. Entries after “also recorded” stand apart in the source; their conditions may differ.
How the values were obtained:
fire ants [1] = test: Field multiple-choice feeding bioassay (soybean oil consumption); format: in vivo, Solenopsis invicta; settings: for difference among treatments and control in oil consumption / feeding preference on soybean oil (one-way ANOVA): all tested concentrations of each compound in soybean oil, field multiple-choice; for concentration at which oil consumption was numerically the highest: multiple-choice bioassay of known attractants; for concentration at which the effect on oil consumption was statistically significant compared to the control oil: Tukey's HSD; for effect of different concentrations on oil consumption (one-way ANOVA): first multiple-choice bioassay: 10-oxo 9.09, 4.54, 2.27, 1.14 mg/g, 11-oxo 8.62, 4.31, 2.15, 1.08 mg/g
Method: Multiple-choice and a paired two-choice bioassays were used in this study. A schematic representation of the bioassay set-ups is depicted in FIG. 19. Soybean oil was used as a food source for all the bioassays (Great Value, purchased from Walmart in Greenville Mississippi). The feeding apparatus was a filtered 1-ml pipette tip with the part 0.5 cm below the filter removed. In multiple-choice bioassays, four to six concentrations of tested compounds were tested with untreated soybean oil as a control, and in two-choice bioassays, the compound at certain concentration was tested against the control oil or oil treated with known fire ant attractant. Eighty microliter soybean oil was loaded onto each filter. After being weighed, the apparatuses with oil were placed in the field for about 2 hours. The apparatuses were then collected and frozen under −40° C. to kill all ants. The apparatuses were weighed again after all ants were removed from the apparatuses. The difference in the weight of apparatuses before and after the feeding bioassays was the oil consumption. There were six to 10 replicates for each bioassay. Feeding sites were at least 10 m away from each other. The difference in oil consumption among/between treatment and control apparatuses was used to evaluate the effect of tested compound on the feeding of fire ants. For multiple-choice bioassays, a one-way ANOVA was performed to compare the effect of different concentrations of tested compound on the percentage of oil consumption. Tukey's HSD test was used for multiple comparisons. A paired t test was used in statistical analysis for the two-choice bioassays. For each fatty acid, eight concentrations were tested in two separate multiple-choice bioassays. For 10-oxo-dodecnoic acid, the first set used in the multiple-choice bioassay included concentrations of 0.00 mg/g (control), 9.09 mg/g, 4.54 mg/g, 2.27 mg/g, and 1.14 mg/g, and the second set included 0.00 mg/g, […], 0.28 mg/g, 0.142 mg/g, and 0.07 mg/g. There were seven replicates for each set of bioassay. For 11-oxo-dodecnoic acid, the first set used in the multiple-choice bioassay included concentrations of 0.00 mg/g, 8.62 mg/g, 4.31 mg/g, 2.15 mg/g, and 1.08 mg/g, and the second set included 0.00 mg/g, 0.54 mg/g, 0.27 mg/g, 0.14 mg/g, and 0.07 mg/g. There were six replicates for the first set of bioassay and seven replicates for the second set of bioassay. Five oxo fatty acid analogs were tested in the filed using two-choice or multiple-choice bioassays. Tested were 8-oxo-decanoic acid, 9-oxo-2-decenoic acid, 9-oxo-decanoic acid, 11-oxo-tridecanoic acid, and 12-oxo-tetradecanoic acid. Eight oxo-decanoic acid was tested in a multiple-choice bioassay at 6 different concentrations including 0.00 mg/g, 0.81 mg/g, 0.41 mg/g, 0.20 mg/g, 0.10 mg/g, and 0.05 mg/g. There were 10 replicates for the bioassay. For 9-oxo-2-decenoic acid, a two-choice bioassay was conducted with each of the following six concentrations: 0.39 mg/g, 0.197 mg/g, 0.098 mg/g, 0.049 mg/g, 0.025 mg/g, and 0.012 mg/g. There were 5 to 7 replicates for each two-choice bioassay. For 9-oxo-decanoic acid, a multiple-choice bioassay was conducted at six concentrations including 0.00 mg/g, 0.124 mg/g, 0.062 mg/g, 0.031 mg/g, 0.016 mg/g, and 0.007 mg/g. There were 11 replicates. For 11-oxo-tridecanoic acid, a multiple-choice bioassay was conducted at five concentrations including 0.00 mg/g, 7.71 mg/g, 3.86 mg/g, 1.93 mg/g, and 0.96 mg/g. There were 6 replicates. For 12-oxo-tetradecanoic acid, a multiple-choice bioassay was conducted at six concentrations including 0.00 mg/g, 1.15 mg/g, 0.58 mg/g, 0.29 mg/g, 0.14 mg/g, and 0.07 mg/g. There were 7 replicates.

fire ants [2] = test: Field paired two-choice feeding bioassay (soybean oil consumption); format: in vivo, Solenopsis invicta
Method: Multiple-choice and a paired two-choice bioassays were used in this study. A schematic representation of the bioassay set-ups is depicted in FIG. 19. Soybean oil was used as a food source for all the bioassays (Great Value, purchased from Walmart in Greenville Mississippi). The feeding apparatus was a filtered 1-ml pipette tip with the part 0.5 cm below the filter removed. In multiple-choice bioassays, four to six concentrations of tested compounds were tested with untreated soybean oil as a control, and in two-choice bioassays, the compound at certain concentration was tested against the control oil or oil treated with known fire ant attractant. Eighty microliter soybean oil was loaded onto each filter. After being weighed, the apparatuses with oil were placed in the field for about 2 hours. The apparatuses were then collected and frozen under −40° C. to kill all ants. The apparatuses were weighed again after all ants were removed from the apparatuses. The difference in the weight of apparatuses before and after the feeding bioassays was the oil consumption. There were six to 10 replicates for each bioassay. Feeding sites were at least 10 m away from each other. The difference in oil consumption among/between treatment and control apparatuses was used to evaluate the effect of tested compound on the feeding of fire ants. For multiple-choice bioassays, a one-way ANOVA was performed to compare the effect of different concentrations of tested compound on the percentage of oil consumption. Tukey's HSD test was used for multiple comparisons. A paired t test was used in statistical analysis for the two-choice bioassays.
Five oxo fatty acid analogs were tested in the filed using two-choice or multiple-choice bioassays. Tested were 8-oxo-decanoic acid, 9-oxo-2-decenoic acid, 9-oxo-decanoic acid, 11-oxo-tridecanoic acid, and 12-oxo-tetradecanoic acid. Eight oxo-decanoic acid was tested in a multiple-choice bioassay at 6 different concentrations including 0.00 mg/g, 0.81 mg/g, 0.41 mg/g, 0.20 mg/g, 0.10 mg/g, and 0.05 mg/g. There were 10 replicates for the bioassay. For 9-oxo-2-decenoic acid, a two-choice bioassay was conducted with each of the following six concentrations: 0.39 mg/g, 0.197 mg/g, 0.098 mg/g, 0.049 mg/g, 0.025 mg/g, and 0.012 mg/g. There were 5 to 7 replicates for each two-choice bioassay. For 9-oxo-decanoic acid, a multiple-choice bioassay was conducted at six concentrations including 0.00 mg/g, 0.124 mg/g, 0.062 mg/g, 0.031 mg/g, 0.016 mg/g, and 0.007 mg/g. There were 11 replicates. For 11-oxo-tridecanoic acid, a multiple-choice bioassay was conducted at five concentrations including 0.00 mg/g, 7.71 mg/g, 3.86 mg/g, 1.93 mg/g, and 0.96 mg/g. There were 6 replicates. For 12-oxo-tetradecanoic acid, a multiple-choice bioassay was conducted at six concentrations including 0.00 mg/g, 1.15 mg/g, 0.58 mg/g, 0.29 mg/g, 0.14 mg/g, and 0.07 mg/g. There were 7 replicates.
The following paired two-choice bioassays were conducted: 1) 10-oxo-dodecanoic acid at 1.14 mg/g vs trans, trans-2,4-heptadienal at 0.19 mg/g; 2) 11-oxo-dodecanoic acid at 1.08 mg/g vs trans, trans-2,4-heptadienal at 0.19 mg/g; 3) 10-oxo-dodecanoic acid at 1.14 mg/g vs 2-ethyl-3,6 (5)-dimethylpyrazine at 0.004 mg/g; 4) 11-oxo-dodecanoic acid at 1.08 mg/g vs 2-ethyl-3,6 (5)-dimethylpyrazine at 0.004 mg/g. The results are shown in Table 2 below, and FIG. 29A to FIG. 29D.

fire ants [3] = settings: Vander Meer et al., 2009; cited from earlier work
fire ants [4] = test: Feeding bioassay (laboratory paired two-choice, treated vs untreated soybean oil); format: in vivo, S. invicta; settings: soybean oil with 1.90 μg/mg 10-oxo-dodecanoic acid, 7.273 μg/mg 11-oxo-dodecanoic acid, or 0.36 μg/mg mixture (38.12%/61.88%) vs untreated oil; 24 hours; paired t test
worker fire ants = test: Attraction bioassay (paired two choice, treated tube vs acetone control); format: in vivo, S. invicta; settings: individual oxo acids, 20 μl acetone solution: 2.029 mg/ml 10-oxo-dodecanoic acid, 1.96 mg/ml 11-oxo-dodecanoic acid; host tray; 1 hour; paired t test
[5] = Bioassay 3: 10-oxo-dodecanoic acid 1.14 mg/g vs 2-ethyl-3,6 (5)-dimethylpyrazine 0.004 mg/g
[6] = Bioassay 3: 10-oxo-dodecanoic acid at 1.14 mg/g vs 2-ethyl-3,6 (5)-dimethylpyrazine at 0.004 mg/g
[7] = Bioassay 4: 11-oxo-dodecanoic acid 1.08 mg/g vs 2-ethyl-3,6 (5)-dimethylpyrazine 0.004 mg/g
[8] = Bioassay 4: 11-oxo-dodecanoic acid at 1.08 mg/g vs 2-ethyl-3,6 (5)-dimethylpyrazine at 0.004 mg/g
[9] = first multiple-choice bioassay (about 1 to 9 mg/g)
[10] = control 0.00 mg/g, field, about 2 hours
[11] = Bioassay 1: 10-oxo-dodecanoic acid 1.14 mg/g vs trans, trans-2,4-heptadienal 0.19 mg/g
[12] = Bioassay 1: 10-oxo-dodecanoic acid at 1.14 mg/g vs trans, trans-2,4-heptadienal at 0.19 mg/g
[13] = Bioassay 2: 11-oxo-dodecanoic acid 1.08 mg/g vs trans, trans-2,4-heptadienal 0.19 mg/g
[14] = Bioassay 2: 11-oxo-dodecanoic acid at 1.08 mg/g vs trans, trans-2,4-heptadienal at 0.19 mg/g

Compound: 2-ethyl-3,6 (5)-dimethylpyrazine [reference compound]
- difference among treatments and control in oil consumption / feeding preference on soybean oil (one-way ANOVA) (fire ants [1]): significant difference
- concentration at which oil consumption was numerically the highest (fire ants [1]): 0.004 mg/g
- concentration that significantly improved the feeding preference of fire ant on soybean oil (fire ants [1]; multiple-choice, 0.064 to 0.002 mg/g tested): 0.002 mg/g and 0.004 mg/g
- difference in the effect on oil consumption between the two compounds (fire ants [2]; [5]): significantly higher oil consumption
- Mean oil consumption (fire ants [2]; [6]): 19.53 mg
- difference in the effect on oil consumption between the two compounds (fire ants [2]; [7]): significantly higher oil consumption
- Mean oil consumption (fire ants [2]; [8]): 21.75 mg
- concentration mostly preferred by fire ants (fire ants [3]): 30 ng/µL

Compound: CCC(=O)CCCCCCC(=O)O [8-oxo-decanoic acid]
- difference among treatments and control in oil consumption / feeding preference on soybean oil (one-way ANOVA) (fire ants [1]): no significant difference

Compound: CC(=O)CCCCCC=CC(=O)O [9-oxo-2-decenoic acid]
- feeding preference of fire ant on soybean oil (fire ants [2]; 0.049 mg/g in soybean oil vs control): significantly improved

Compound: CC(=O)CCCCCCCC(=O)O [9-oxo-decanoic acid]
- difference among treatments and control in oil consumption / feeding preference on soybean oil (one-way ANOVA) (fire ants [1]): no significant difference

Compound: CCC(=O)CCCCCCCCC(=O)O [10-oxo-dodecanoic acid]
- concentration at which the effect on oil consumption was statistically significant compared to the control oil (fire ants [1]; [9]): 1.14 mg/g
- effect of different concentrations on oil consumption (one-way ANOVA) (fire ants [1]; [10]): significant effect
- concentration at which the effect on oil consumption was statistically significant compared to the control oil (fire ants [1]; second multiple-choice bioassay (0.07 to about 0.5 mg/g)): 0.51 mg/g
- difference in oil consumption between treatment and control (fire ants [4]): significant
- difference in the number of ants between treatment vials and control vials (worker fire ants): significant
- difference in the effect on oil consumption between the two compounds (fire ants [2]; [11]): no significant difference
- Mean oil consumption (fire ants [2]; [12]): 23.84 mg
- difference in the effect on oil consumption between the two compounds (fire ants [2]; [5]): significant difference
- Mean oil consumption (fire ants [2]; [6]): 12.69 mg

Compound: CC(=O)CCCCCCCCCC(=O)O [11-oxo-dodecanoic acid]
- most active / most effective concentration (fire ants [1]; dosage bioassays in soybean oil): around 1.08 mg/g
- concentration at which the effect on oil consumption was statistically significant compared to the control oil (fire ants [1]; [9]): 1.08 mg/g
- effect of different concentrations on oil consumption (one-way ANOVA) (fire ants [1]; [10]): significant effect
- effect on oil consumption (one-way ANOVA) (fire ants [1]; second multiple-choice bioassay: 10-oxo 0.51, 0.28, 0.142, 0.07 mg/g, 11-oxo 0.54, 0.27, 0.14, 0.07 mg/g, control 0.00 mg/g, field, about 2 hours): no significant effect
- difference in oil consumption between treatment and control (fire ants [4]): significant difference
- difference in the number of ants between treatment vials and control vials (worker fire ants): significant difference
- difference in the effect on oil consumption between the two compounds (fire ants [2]; [13]): no significant difference
- Mean oil consumption (fire ants [2]; [14]): 21.23 mg
- difference in the effect on oil consumption between the two compounds (fire ants [2]; [7]): significant difference
- Mean oil consumption (fire ants [2]; [8]): 15.8 mg

Compound: CCC(=O)CCCCCCCCCC(=O)O [11-oxo-tridecanoic acid]
- difference among treatments and control in oil consumption / feeding preference on soybean oil (one-way ANOVA) (fire ants [1]): no significant difference

Compound: CCC(=O)CCCCCCCCCCC(=O)O [12-oxo-tetradecanoic acid]
- difference among treatments and control in oil consumption / feeding preference on soybean oil (one-way ANOVA) (fire ants [1]): no significant difference

Compound: CC/C=C/C=C/C=O [trans, trans-2,4-heptadienal, reference compound]
- difference among treatments and control in oil consumption / feeding preference on soybean oil (one-way ANOVA) (fire ants [1]): did not significantly improve; also recorded: not significantly different
- concentration at which oil consumption was numerically the highest (fire ants [1]): 0.19 mg/g
- difference in the effect on oil consumption between the two compounds (fire ants [2]; [11]): no significant difference
- Mean oil consumption (fire ants [2]; [12]): 22.83 mg
- difference in the effect on oil consumption between the two compounds (fire ants [2]; [13]): no significant difference
- Mean oil consumption (fire ants [2]; [14]): 19.95 mg
